{"source": "patent US8501241B1", "about": "“Treating cancer with a whole, leech saliva extract” (priority 2012, dated 2013)", "key": {"[1]": {"tested_on": "Cryptococcus neoformans ATCC90112", "test": "Kirby-Bauer disc diffusion", "format": "cell-based", "conditions": "reference antibiotic disc, 100 units/disc", "from_the_text": "(§1) Experimental procedures include the following steps: • 1."}, "[2]": {"tested_on": "Candida albicans ATCC10231", "test": "Kirby-Bauer disc diffusion", "format": "cell-based", "conditions": "reference antibiotic disc, 100 units/disc", "from_the_text": "as §1"}, "[3]": {"test": "Mortality, behaviour and acute toxicity signs in injected diabetic rats", "format": "in vivo, rat (Sprague Dawley)", "conditions": "insulin 20 units/kg b.w"}, "induced-diabetic rats": {"tested_on": "induced-diabetic rats", "test": "Antihyperglycemic activity: fall in fasting blood glucose in alloxan-induced diabetic rats", "format": "in vivo, rat (Sprague Dawley)"}}, "data": [{"compound": "C[C@@H]1[C@H](O)[C@@H](C)/C=C/C=C/CC/C=C/C=C/C=C/C=C/C(O[C@H]2O[C@H](C)[C@@H](O)[C@H](N)[C@@H]2O)CC2O[C@](O)(CC(O)C(O)CCC(O)CC(O)CC(O)CC(=O)O[C@H]1C)CC(O)C2C(=O)O", "note": "(stereo partly drawn) [Nystatin, nystatin]", "values": [{"measurement": "Zone of inhibition (mm) C. neoformance", "setting": "[1]", "value": 9, "unit": "mm"}, {"measurement": "Zone of inhibition (mm) C. albicans", "setting": "[2]", "value": 10, "unit": "mm"}]}, {"compound": "insulin: insulin from bovine pancreas (≧27 units/mg)", "values": [{"measurement": "hypoglycemia and mortality", "setting": "[3]", "value": "hypoglycemic condition in all rats leading to the death of one rat"}, {"measurement": "fasting blood glucose (FBG)", "setting": "induced-diabetic rats; after two hours of injection", "value": "sharp significant decrease (p<0.001)"}, {"measurement": "difference between normal rats and treated diabetic rats", "setting": "induced-diabetic rats; at either dose", "value": "No significant difference"}, {"measurement": "fasting blood glucose (FBG)", "setting": "induced-diabetic rats; insulin 10 units/kg b.w, after 8 hours of treatment", "value": "returned to the diabetic state"}]}]}
